Here are results for 26 compounds from patent US4181802A, “1-(Heterocyclylalkyl)-1,3-dihydro-2-H-benzimidazole-2-ones” (Janssen Pharmaceutica N.V., priority 1978, dated 1980).

pIC50: −log10 of the molar value. Read-outs that look alike come from different tables or passages of the source.

Common to all, as to type: cell-based
The target of experiment [1] is T1, β-adrenergic receptor (β1), guinea-pig right atrium (Cavia porcellus, UniProt H0W3H1).
T1 construct: Spontaneously beating right atria are dissected from guinea-pigs; from tissue; host or cells: guinea-pig right atrium (strip with sinoatrial node)
The experiment is described as follows: Guinea-pig right atrium (β1): inhibition of isoprenaline-induced increase in heart rate. Particulars: isolated guinea-pig right atrium, drug incubation 30 min, 37.5° C.; for pIC50: Table I, ED50 estimated graphically. The method, then: 1. GUINEA-PIG RIGHT ATRIUM (β1)
Spontaneously beating right atria are dissected from guinea-pigs (400±50 g). A triangular strip of atrium, including the sinoatrial node is excised together with the anterior vena cava.
The vena is fixed to a glass muscle holder and the opposite atrial muscle is connected to a Grass isometric transducer. Atria are suspended at optimal preload in a 100 ml Krebs-Henseleit solution, containing 2 g/l glucose, at 37.5° C. and aerated with 95% O2 and 5% CO2.
Heart rate and contractile force are recorded by means of a Grass FTO3C isometric transducer. Output signals amplified by an isometric transducer amplifier (J.S.I.) via a cardiotachometer (J.S.I.) are recorded on a Honeywell XYY' recorder. […] This produces a dose related increase in heart rate (a). After washing out isoprenaline a stabilization period of 15 min. is allowed. A drug is then added to the bath fluid for 30 min. During this incubation period possible direct chronotropic and inotropic effects of the drug are determined. Following this, a second dose-response curve for isoprenaline is produced by infusion during 10 minutes (b). The slope of the increase in rate is graphically estimated for each period of isoprenaline addition and the ratio b/a is calculated. Based on solvent experiments a ratio of less than 0.70 is considered as the criterion of inhibitory activity. ED50 -values are estimated graphically.

Experiment [2] concerns the target T2, β-adrenergic receptor (β2), guinea-pig tracheal ring (Cavia porcellus, UniProt Q8K4Z4).
T2 construct: The trachea is dissected from guinea-pigs; from tissue; host or cells: guinea-pig tracheal smooth muscle (rings)
The experiment in a line: Guinea-pig tracheal ring (β2): inhibition of isoprenaline-induced relaxation. The settings on record: guinea-pig tracheal ring, methacholine 1 μg/ml, isoprenaline 0.08 μg/ml, 35° C., read-out: β2 = ED50 tracheal ring (converted). An excerpt:
(§1) 2. GUINEA-PIG TRACHEAL RING (β2)
(§2) The trachea is dissected from guinea-pigs (400±50 g). Four rings, approximately 8 mm in width, are then cut from each trachea. Cartilaginous parts of the tracheal ring are mounted horizontally between two metal rods, one of which is attached to a glass organholder, the other rod being connected to a Grass isometric transducer. Using such a technique the tracheal smooth muscle is suspended optimally i.e. midway between the cartilaginous parts. the prepared rings are suspended in a 100 ml organ chamber filled with Tyrode solution, maintained at 35° C. and aerated with 95% O2 and 5% CO2. The preparation is maintained at tension of 1.5 g throughout the experiment. Tension changes recorded are thus an expression of contraction or relaxation. After a stabilization period of 30 min contraction is induced by adding methacholine (1 μg/ml) to the bath for a 10 min period. Addition of isoprenaline (0.08 μg/ml) for 4 min. in the presence of methacholine induces a relaxation of the tracheal ring. This procedure is repeated twice before adding the drug (t-33'; t-19') and once 30 min after addition of the drug. During the incubation period any direct effects of the drug are measured. A 50% inhibition of the agonist-induced response is used as the criterion of effectiveness and ED50 values (with fiducial limits) are determined by probit analysis.
(§3) The ratio of the ED50 -values obtained in respectively the tracheal ring test (β2) and in the right atrium test (β1) may be considered as an index of the cardioselectivity of the test drug.

The subject of experiment [3] is β-adrenergic receptor (β2), guinea-pig tracheal ring. The experiment is described as above. The settings on record: ratio of ED50 tracheal ring / ED50 right atrium; for β2/β1 (ratio of the ED50 values, tracheal ring to right atrium; index of cardioselectivity): Table I.
Text: as §1, §2, §3

Where [4] appears, read: Table I, 30 min after drug, probit analysis.

T1 sequence (H0W3H1 1-470): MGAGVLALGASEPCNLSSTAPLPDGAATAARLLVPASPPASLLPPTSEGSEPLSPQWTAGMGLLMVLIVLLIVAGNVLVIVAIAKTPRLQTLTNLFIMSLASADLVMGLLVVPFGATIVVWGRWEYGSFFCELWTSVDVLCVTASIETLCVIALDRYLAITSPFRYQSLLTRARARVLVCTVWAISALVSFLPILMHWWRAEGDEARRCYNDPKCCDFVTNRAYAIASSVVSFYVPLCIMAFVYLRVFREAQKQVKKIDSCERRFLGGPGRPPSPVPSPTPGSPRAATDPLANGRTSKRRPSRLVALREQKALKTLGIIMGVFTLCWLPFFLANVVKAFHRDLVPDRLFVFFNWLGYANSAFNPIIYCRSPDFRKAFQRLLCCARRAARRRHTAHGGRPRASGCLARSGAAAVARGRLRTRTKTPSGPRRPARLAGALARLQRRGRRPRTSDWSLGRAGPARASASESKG
T2 sequence (Q8K4Z4 whole entry): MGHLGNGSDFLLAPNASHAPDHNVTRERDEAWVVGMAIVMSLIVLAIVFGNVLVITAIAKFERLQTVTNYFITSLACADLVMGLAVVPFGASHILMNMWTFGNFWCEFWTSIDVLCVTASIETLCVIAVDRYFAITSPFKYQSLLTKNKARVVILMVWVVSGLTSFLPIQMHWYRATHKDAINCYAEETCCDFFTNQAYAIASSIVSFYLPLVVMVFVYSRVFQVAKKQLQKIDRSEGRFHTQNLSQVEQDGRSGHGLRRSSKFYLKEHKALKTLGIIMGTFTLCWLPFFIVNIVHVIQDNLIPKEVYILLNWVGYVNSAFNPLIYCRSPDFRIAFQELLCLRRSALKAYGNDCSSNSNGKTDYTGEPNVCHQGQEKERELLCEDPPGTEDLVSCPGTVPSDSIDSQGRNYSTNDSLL

Regarding `O=c1[nH]c2ccc(Cl)cc2n1CC1CCCN(CC(O)COc2cccc3ccccc23)C1` (stereo not drawn) [1-naphthalenyl, 6-Cl], the pIC50 in experiment [1] is 7.97. The IC50 in experiment [2] (setting [4]) was 343 nM. Besides, the “β2/β1 (ratio of the ED50 values, tracheal ring to right atrium; index of cardioselectivity)” value in experiment [3] was determined as 32.
Take `O=c1[nH]c2ccccc2n1CC1CCCN(CC(O)COc2cccc3ccccc23)C1` (stereo not drawn) [1-naphthalenyl, H]: the pIC50 in experiment [1] is 7.64. In experiment [2] (setting [4]), the IC50 is 2900 nM. Further, the “β2/β1 (ratio of the ED50 values, tracheal ring to right atrium; index of cardioselectivity)” value in experiment [3] is on record as 125.
Consider `O=c1[nH]c2ccccc2n1CC1CCCN(CC(O)C2COc3ccccc3O2)C1` (stereo not drawn) [1-{1-[2-(2,3-dihydro-1,4-benzodioxin-2-yl)-2-hydroxyethyl]-3-piperidinylmethyl}-1,3-dihydro-2H-benzimidazol-2-one], for which the IC50 is 12.2 nM in experiment [1] (Table II, read-out: β1 = ED50 right atrium (converted)) and 48.8 nM in experiment [2] (Table II). In addition, the “β2/β1 (ratio of the ED50 values; index of cardioselectivity)” value in experiment [3] (Table II) stood at 4.
As for `Cc1cccc(OCC(O)CN2CCCC(Cn3c(=O)[nH]c4ccccc43)C2)c1C` (stereo not drawn) [2,3-(CH3)2C6 H3, H], the pIC50 in experiment [1] is 8.21. Besides, in experiment [2] (setting [4]), the IC50 was 48.8 nM. For the same compound, the “β2/β1 (ratio of the ED50 values, tracheal ring to right atrium; index of cardioselectivity)” value in experiment [3] is 8.
The like results for `CCOc1ccccc1OCC(O)CN1CCCC(Cn2c(=O)[nH]c3ccc(Cl)cc32)C1` (stereo not drawn) [2-(C2 H5 O)C6 H4,6-Cl] were, in that order, 7.66, 391 nM and 18.
Taken in the same sequence, the figures for `CCOc1ccccc1OCC(O)CN1CCCC(Cn2c(=O)[nH]c3ccccc32)C1` (stereo not drawn) [2-(C2 H5 O)C6 H4, H] were 8.23, 23.5 nM and 4.
In the case of `CCc1ccccc1OCC(O)CN1CCCC(Cn2c(=O)[nH]c3ccccc32)C1` (stereo not drawn) [2-(C2 H5)C6 H4, H], in experiment [1], the pIC50 was 8.21. Moreover, the IC50 in experiment [2] (setting [4]) is 48.8 nM. In experiment [3], the “β2/β1 (ratio of the ED50 values, tracheal ring to right atrium; index of cardioselectivity)” value was determined as 8.
Take `C=CCOc1ccccc1OCC(O)CN1CCCC(Cn2c(=O)[nH]c3ccccc32)C1` (stereo not drawn) [2-(CH2CHCH2 O)C6 H4, H]: the pIC50 in experiment [1] was 8.54. Besides, in experiment [2] (setting [4]), the IC50 is 45.7 nM. Besides, in experiment [3], the “β2/β1 (ratio of the ED50 values, tracheal ring to right atrium; index of cardioselectivity)” value worked out at 16.
Taken in the same sequence, the figures for `C=CCc1ccccc1OCC(O)CN1CCCC(Cn2c(=O)[nH]c3ccccc32)C1` (stereo not drawn) [2-(CH2CHCH2)C6 H4, H] were 8.23, 85.4 nM and 14.
Taken in the same sequence, the figures for `CC(=O)c1ccccc1OCC(O)CN1CCCC(Cn2c(=O)[nH]c3ccccc32)C1` (stereo not drawn) [2-(CH3 CO)C6 H4, H] were 8.53, 2.95 nM and 1.
As to `COc1ccccc1OCC(O)CN1CCCC(Cn2c(=O)[nH]c3ccc(Cl)cc32)C1` (stereo not drawn) [2-(CH3 O)C6 H4,6-Cl, 6-chloro-1,3-dihydro-1-{1-[2-hydroxy-3-(2-methoxyphenoxy)propyl]-3-piperidinylmethyl}-2H-benzimidazol-2-one], the pIC50 in experiment [1] is 8.85. In experiment [2] (setting [4]), the IC50 was 89.7 nM. The “β2/β1 (ratio of the ED50 values, tracheal ring to right atrium; index of cardioselectivity)” value in experiment [3] came out at 63.
Taken in the same sequence, the figures for `COc1ccccc1OCC(O)CN1CCCC(Cn2c(=O)[nH]c3ccccc32)C1` (stereo not drawn) [2-(CH3 O)C6 H4, H, 1,3-dihydro-1-{1-[2-hydroxy-3-(2-methoxyphenoxy)propyl]-3-piperidinylmethyl}-2H-benzimidazol-2-one] were 8.61, 12.2 nM and 5.
The like results for `CC(C)Oc1ccccc1OCC(O)CN1CCCC(Cn2c(=O)[nH]c3ccccc32)C1` (stereo not drawn) [2-(iC3 H7 O)C6 H4, H] were, in that order, 7.94, 91 nM and 8.
The like results for `CCCOc1ccccc1OCC(O)CN1CCCC(Cn2c(=O)[nH]c3ccccc32)C1` (stereo not drawn) [2-(nC3 H7 O)C6 H4, H] were, in that order, 8.25, 22.8 nM and 4.
As for `O=c1[nH]c2ccccc2n1CC1CCCN(CC(O)COc2ccccc2Br)C1` (stereo not drawn) [2-BrC6 H4, H], the negative logarithm of the IC50 (pIC50) in experiment [1] was 8.27. Besides, in experiment [2] (setting [4]), the IC50 was 119 nM. The “β2/β1 (ratio of the ED50 values, tracheal ring to right atrium; index of cardioselectivity)” value in experiment [3] is listed as 22.
Taken in the same sequence, the figures for `N#Cc1ccccc1OCC(O)CN1CCCC(Cn2c(=O)[nH]c3ccc(Cl)cc32)C1` (stereo not drawn) [2-CNC6 H4,6-Cl] were 7.95, 181 nM and 16.
Consider `N#Cc1ccccc1OCC(O)CN1CCCC(Cn2c(=O)[nH]c3ccccc32)C1` (stereo not drawn) [2-CNC6 H4, H], for which the pIC50 in experiment [1] was 8.21. Further, the IC50 in experiment [2] (setting [4]) is 12.3 nM. Further, in experiment [3], the “β2/β1 (ratio of the ED50 values, tracheal ring to right atrium; index of cardioselectivity)” value stood at 2.
The like results for `Cc1cc(OCC(O)CN2CCCC(Cn3c(=O)[nH]c4ccccc43)C2)cc(C)c1Cl` (stereo not drawn) [3,5-(CH3)2-4-ClC6 H2, H] were, in that order, 8.25, 2820 nM and 500.
For the compound `Cc1cccc(OCC(O)CN2CCCC(Cn3c(=O)[nH]c4ccccc43)C2)c1` (stereo not drawn) [3-(CH3)C6 H4, H], the pIC50 in experiment [1] was 8.20. Also, the IC50 in experiment [2] (setting [4]) was 50.6 nM. In experiment [3], the “β2/β1 (ratio of the ED50 values, tracheal ring to right atrium; index of cardioselectivity)” value is recorded as 8.
Taken in the same sequence, the figures for `CC(=O)c1ccc(OCC(O)CN2CCCC(Cn3c(=O)[nH]c4ccccc43)C2)cc1` (stereo not drawn) [4-(CH3 CO)C6 H4, H] were 8.23, 47.2 nM and 8.
The like results for `CC(=O)Nc1ccc(OCC(O)CN2CCCC(Cn3c(=O)[nH]c4ccccc43)C2)cc1` (stereo not drawn) [4-(CH3 CONH)C6 H4, H] were, in that order, 8.24, 410 nM and 72.
Taken in the same sequence, the figures for `COc1ccc(OCC(O)CN2CCCC(Cn3c(=O)[nH]c4ccccc43)C2)cc1` (stereo not drawn) [4-(CH3 O)C6 H4, H] were 7.61, 48.6 nM and 2.
Take `CSc1ccc(OCC(O)CN2CCCC(Cn3c(=O)[nH]c4ccccc43)C2)cc1` (stereo not drawn) [4-(CH3 S)C6 H4, H]: the pIC50 in experiment [1] was 8.83. Also, in experiment [2] (setting [4]), the IC50 was 46.8 nM. Moreover, the “β2/β1 (ratio of the ED50 values, tracheal ring to right atrium; index of cardioselectivity)” value in experiment [3] is recorded as 32.
On to `CCCc1ccc(OCC(O)CN2CCCC(Cn3c(=O)[nH]c4cc(F)ccc43)C2)cc1` (stereo not drawn) [4-(nC3 H7)C6 H4,5-F], for which the pIC50 in experiment [1] is 7.64. The IC50 in experiment [2] (setting [4]) was 1430 nM. In addition, the “β2/β1 (ratio of the ED50 values, tracheal ring to right atrium; index of cardioselectivity)” value in experiment [3] is 63.
Taken in the same sequence, the figures for `CCCCNC(=O)Nc1ccc(OCC(O)CN2CCCC(Cn3c(=O)[nH]c4ccccc43)C2)cc1` (stereo not drawn) [4-(nC4 H9NHCONH)C6 H4, H] were 7.70, 161 nM and 8.
Taken in the same sequence, the figures for `O=c1[nH]c2ccccc2n1CC1CCCN(CC(O)COc2ccc(Br)cc2)C1` (stereo not drawn) [4-BrC6 H4, H] were 7.96, 2720 nM and 250.
